According to patent publication US9101620B2, “Polymorph of 3-(substituteddihydroisoindolinone-2-yl)-2,6-dioxopiperidine, and pharmaceutical compositions thereof” (Nanjing Cavendish Bio-Engineering Technology Co., Ltd., priority 2009, dated 2015):

Key:
Type in all cases: physicochemical
[1] = Photostability test (strong illumination); conditions: for Appearance / Content / Related substance: 4500±500 Lx; for Variation of appearance and content (in words): photostability (illumination) test, summary
Excerpt: (§1) The conditions and methods of related substance test involved in this invention were in accordance with HPLC (Appendix VD of Chinese Pharmacopoeia Edition 2005).
(§2) Chromatographic conditions and system applicability: octadecylsilane bonded silica as the filler; 0.01 mol/L of potassium dihydrogen phosphate (adjusted to pH 3.5 by phosphoric acid)-methanol-acetonitrile (80:15:5) as the mobile phase; detection wavelength was 240 nm; the number of theoretical plates should be not less than 2000, calculated according to the peak of 3-(4-amino-1-oxo-1,3-dihydro-2H-isoindole-2-yl)-piperidine-2,6-dione. The resolution of the peak of 3-(4-amino-1-oxo-1,3-dihydro-2H-isoindole-2-yl)-piperidine-2,6-dione from the peaks of adjacent impurities should meet requirements.
The Polymorph I of 3-(4-amino-1-oxo-1,3-dihydro-2H-isoindole-2-yl)-piperidine-2,6-dione (hemihydrate) was distributed homogeneously in open petri dish with the thickness of the raw material not more than 5 mm, and the distance was adjusted to make illumination intensity at 4500±500 Lx. Sample was tested at the 5th and 10th day respectively and the results were contrasted with that of the Day 0. Results were listed in Tab. 2. After strong illumination for 10 days, the X-ray powder diffraction pattern was shown in FIG. 5; DSC diagram of the Polymorph I of 3-(4-amino-1-oxo-1,3-dihydro-2H-isoindole-2-yl)-piperidine-2,6-dione (hemihydrate) was in FIG. 6.
(§3) The Polymorph II of 3-(4-amino-1-oxo-1,3-dihydro-2H-isoindole-2-yl)-piperidine-2,6-dione was distributed homogeneously in open petri dish with the thickness of the raw material not more than 5 mm and the distance was adjusted to make illumination intensity at 4500±500 Lx. Sample was tested at the 5th and 10th day respectively and the results were contrasted with that of the Day 0. Results were listed in Tab. 7. After strong illumination for 10 days, the X-ray powder diffraction pattern was shown in FIG. 16; DSC diagram was in FIG. 17
as §3, with “III” for “II”, “12.” for “7.”, “27;” for “16;”, “28” for “17”

[2] = High temperature test (60° C.); conditions: for Appearance / Content / Related substance: 60° C.; for Variation of appearance and content (in words): high temperature (60° C.) test, summary
Excerpt: as §1, §2
The raw material of Polymorph I of 3-(4-amino-1-oxo-1,3-dihydro-2H-isoindole-2-yl)-piperidine-2,6-dione (hemihydrate) was put into a clean sealed glass bottle and then put in thermostatic drying chamber at 60° C. Sample was tested at the 5th and 10th day respectively and the results were contrasted with that of the Day 0. Results were listed in Tab. 3. After high temperature test of 60° C. for 10 days, the X-ray powder diffraction pattern was shown FIG. 7; DSC diagram was in FIG. 8.
(§4) The raw material of Polymorph II of 3-(4-amino-1-oxo-1,3-dihydro-2H-isoindole-2-yl)-piperidine-2,6-dione was put into a clean sealed glass bottle and then put in thermostatic drying chamber at 60° C. Sample was tested at the 5th and 10th day respectively and the results were contrasted with that of the Day 0. Results were listed in Tab. 8. After high temperature test of 60° C. for 10 days, the X-ray powder diffraction pattern was shown in FIG. 18; DSC diagram was in FIG. 19.
as §4, with “III” for “II”, “13.” for “8.”, “29;” for “18;”, “30.” for “19.”

[3] = Accelerated test (40° C., 75% relative humidity); conditions: 40° C. and 75% relative humidity
Excerpt: as §1, §2
(§5) The raw material of Polymorph I of 3-(4-amino-1-oxo-1,3-dihydro-2H-isoindole-2-yl)-piperidine-2,6-dione (hemihydrate) was hermetically packed in plastic bags of polyethylene film and put in thermostatic and humidostatic incubator at 40±2° C. and 75±5% relative humidity for six months. Sample was tested at the end of the 1st, 2nd, 3rd and 6th month respectively and the results were contrasted with that of the zeroth month. Results were listed in Tab. 5. After accelerated test at 40° C. for six months, the X-ray powder diffraction pattern was shown in FIG. 11; DSC diagram was in FIG. 12-1; TGA diagram was in FIG. 12-2
as §5, with “Polymorph II” for “Polymorph I”, “3-(4-amino-1-oxo-1,3-dihydro-2H-isoindole-2-yl)-piperidine-2,6-dione” for “3-(4-amino-1-oxo-1,3-dihydro-2H-isoindole-2-yl)-piperidine-2,6-dione (hemihydrate)”, “Tab. 10.” for “Tab. 5.”, “FIG. 22;” for “FIG. 11;”, “FIG. 23-1;” for “FIG. 12-1;”, “FIG. 23-2” for “FIG. 12-2”
as §5, with “Polymorph III” for “Polymorph I”, “3-(4-amino-1-oxo-1,3-dihydro-2H-isoindole-2-yl)-piperidine-2,6-dione” for “3-(4-amino-1-oxo-1,3-dihydro-2H-isoindole-2-yl)-piperidine-2,6-dione (hemihydrate)”, “Tab. 15.” for “Tab. 5.”, “FIG. 33;” for “FIG. 11;”, “FIG. 34-1;” for “FIG. 12-1;”, “FIG. 34-2” for “FIG. 12-2”

Appearance ([1]; 0 days) | Content ([1]; 0 days) [%] | Related substance ([1]; 0 days) [%] | Appearance ([1]; 5 days) | Content ([1]; 5 days) [%] | Related substance ([1]; 5 days) [%] | Appearance ([1]; 10 days) | Content ([1]; 10 days) [%] | Related substance ([1]; 10 days) [%] | Variation of appearance and content (in words) [1] | Appearance ([2]; 0 days) | Content ([2]; 0 days) [%] | Related substance ([2]; 0 days) [%] | Appearance ([2]; 5 days) | Content ([2]; 5 days) [%] | Related substance ([2]; 5 days) [%] | Appearance ([2]; 10 days) | Content ([2]; 10 days) [%] | Related substance ([2]; 10 days) [%] | Variation of appearance and content (in words) [2] | SMILES | further results
off-white powder | 99.87 | 0.05 | off-white powder | 99.85 | 0.05 | off-white powder | 99.86 | 0.05 | few significant variation | off-white powder | 99.87 | 0.05 | off-white powder | 99.86 | 0.05 | off-white powder | 99.84 | 0.06 | few significant variation | Nc1cccc2c1CN(C1CCC(=O)NC1=O)C2=O (single isomer, unassigned) [Polymorph I, 3-(4-amino-1-oxo-1,3-dihydro-2H-isoindole-2-yl)-piperidine-2,6-dione] | Appearance ([3]; 0 months): Off-white powder; Content ([3]; 0 months): 99.87%; Related substance ([3]; 0 months): 0.05%; Appearance ([3]; 1 month): Off-white powder; Content ([3]; 1 month): 99.85%; Related substance ([3]; 1 month): 0.05%; Appearance ([3]; 2 months): Off-white powder; Content ([3]; 2 months): 99.81%; Related substance ([3]; 2 months): 0.05%; Appearance ([3]; 3 months): Off-white powder; Content ([3]; 3 months): 99.78%; Related substance ([3]; 3 months): 0.06%; Appearance ([3]; 6 months): Off-white powder; Content ([3]; 6 months): 99.75%; Related substance ([3]; 6 months): 0.07%
off-white powder | 99.86 | 0.07 | off-white powder | 99.85 | 0.07 | off-white powder | 99.85 | 0.07 | few significant variation | off-white powder | 99.86 | 0.07 | off-white powder | 99.84 | 0.07 | off-white powder | 99.83 | 0.08 | few significant variation | Nc1cccc2c1CN(C1CCC(=O)NC1=O)C2=O (single isomer, unassigned) [Polymorph III, 3-(4-amino-1-oxo-1,3-dihydro-2H-isoindole-2-yl)-piperidine-2,6-dione] | Appearance ([3]; 0 months): off-white powder; Content ([3]; 0 months): 99.86%; Related substance ([3]; 0 months): 0.07%; Appearance ([3]; 1 month): off-white powder; Content ([3]; 1 month): 99.81%; Related substance ([3]; 1 month): 0.07%; Appearance ([3]; 2 months): off-white powder; Content ([3]; 2 months): 99.76%; Related substance ([3]; 2 months): 0.07%; Appearance ([3]; 3 months): off-white powder; Content ([3]; 3 months): 99.71%; Related substance ([3]; 3 months): 0.08%; Appearance ([3]; 6 months): off-white powder; Content ([3]; 6 months): 99.62%; Related substance ([3]; 6 months): 0.08%
off-white powder | 99.89 | 0.09 | off-white powder | 99.89 | 0.09 | off-white powder | 99.88 | 0.09 | few significant variation | Off-white powder | 99.89 | 0.09 | Off-white powder | 99.86 | 0.09 | Off-white powder | 99.87 | 0.10 | few significant variation | Nc1cccc2c1CN(C1CCC(=O)NC1=O)C2=O (single isomer, unassigned) [Polymorph II, 3-(4-amino-1-oxo-1,3-dihydro-2H-isoindole-2-yl)-piperidine-2,6-dione] | Appearance ([3]; 0 months): off-white powder; Content ([3]; 0 months): 99.89%; Related substance ([3]; 0 months): 0.09%; Appearance ([3]; 1 month): off-white powder; Content ([3]; 1 month): 99.85%; Related substance ([3]; 1 month): 0.09%; Appearance ([3]; 2 months): off-white powder; Content ([3]; 2 months): 99.77%; Related substance ([3]; 2 months): 0.10%; Appearance ([3]; 3 months): off-white powder; Content ([3]; 3 months): 99.72%; Related substance ([3]; 3 months): 0.10%; Appearance ([3]; 6 months): off-white powder; Content ([3]; 6 months): 99.68%; Related substance ([3]; 6 months): 0.12%
